These results are taken from US11091414B2, “Complexes of 1-methylcyclopropene with metal coordination polymer networks” (AGROFRESH INC., priority 2014, dated 2021).

Holding throughout (type): physicochemical
A short description of data set [1]: Adsorption or inclusion level of 1-MCP in adsorbents/encapsulants (release in water, headspace GC). The procedure:
This Example provides specific examples of methods for adsorbing 1-MCP into a MCPN. Adsorption of 1-MCP was carried out using both a modified solid method (method A) and a solution-based method (method B), as disclosed herein. The general protocol in both methods included a dual-vessel system, where 1-MCP was generated in the first vessel, also referred to as the generation vessel, and the adsorption took place in the second vessel, also referred to as the adsorption vessel. Before adsorption, 50 mg of adsorbent was first dried in a vacuum oven at 100° C. overnight and sealed in the adsorption vessel. […]
This Example illustrates some of the differences between the MCPNs of the present disclosure and prior art encapsulants (cyclodextrins). […] The percentage adsorbed or encapsulated was quantified by taking 55 mg of A1 or E4 and mixed with 25 ml of water in 500 ml sealed glass bottles to release 1-MCP.
Headspace sample was collected and injected into gas chromatography using methods described in Mir, “Harvest Maturity, Storage Temperature and 1-MCP Application Frequency Alter Firmness Retention and Chlorophyll Fluorescence of “Redchief Delicious” Apples,” Journal of American society of horticultural science, 2001, 126(5): 618-624). […] The peak area was used to quantify the concentration.

Data set [2] is described as follows: Release rate of 1-MCP by hydration with water (method C). The procedure: This Example illustrates the release rate of 1-MCP from MCPNs and cyclodextrins. […] Encapsulation of sample S4 was carried out using methods A and D. Method C was used for the release of 1-MCP, where about 25 mg of S1 and S4 were hydrated with 25 mL of water in a 500 mL glass bottle under agitation. Headspace samples were withdrawn periodically to quantify the released 1-MCP.

Data set [3] is described as follows: Stability in water by powder X-ray diffraction. As to conditions: soaked in water 1 hour, 5 hours, 20 hours.
A short description of data set [4]: Thermal stability by thermogravimetric analysis (TGA). To be noted: 10° C./min to 600° C. under nitrogen. The procedure:
This Example illustrates the thermal stability of MCPN. Thermogravimetric analysis (TGA) was conducted to determine the temperature that causes structural change in MCPN. […] TGA data was collected on a TA Q5000 Analyzer with a temperature ramping rate of 10° C./min from room temperature to 600° C. under nitrogen gas flow.

Some results are limits rather than exact numbers.

As for `OC[C@H]1O[C@@H]2O[C@H]3[C@H](O)[C@@H](O)[C@@H](O[C@H]4[C@H](O)[C@@H](O)[C@@H](O[C@H]5[C@H](O)[C@@H](O)[C@@H](O[C@H]6[C@H](O)[C@@H](O)[C@@H](O[C@H]7[C@H](O)[C@@H](O)[C@@H](O[C@H]1[C@H](O)[C@H]2O)O[C@@H]7CO)O[C@@H]6CO)O[C@@H]5CO)O[C@@H]4CO)O[C@@H]3CO` [S4, Alpha cyclodextrin], the “Adsorption or inclusion level” value in data set [1] (1-MCP loaded by method A (solid method)) was 0.05%; in data set [1] (1-MCP loaded by method D (solution in pH 4.6 buffer, 50 mg S4/mL)), 2.46%. The entries for the “Time to complete release of 1-MCP” value in data set [2] (loaded by method A) and in data set [2] (loaded by method D) were “almost instantaneously” and no more than 40 min, respectively. Further, the “% Released” value in data set [2] (loaded by method D, 5 min) worked out at 39%; in data set [2] (loaded by method D, 15 min), 62%; in data set [2] (loaded by method D, 25 min), 84%; in data set [2] (loaded by method D, 40 min), 100%; in data set [2] (loaded by method D, 60 min), 100%. In addition, in data set [3], the “Change of X-ray pattern / structure after soaking in water” value is “dramatic structure change after 1 hour soaking in water”. The Decomposing temperature in data set [4] is 280 °C.
Take `OC[C@H]1O[C@@H]2O[C@H]3[C@H](O)[C@@H](O)[C@@H](O[C@H]4[C@H](O)[C@@H](O)[C@@H](O[C@H]5[C@H](O)[C@@H](O)[C@@H](O[C@H]6[C@H](O)[C@@H](O)[C@@H](O[C@H]7[C@H](O)[C@@H](O)[C@@H](O[C@H]8[C@H](O)[C@@H](O)[C@@H](O[C@H]1[C@H](O)[C@H]2O)O[C@@H]8CO)O[C@@H]7CO)O[C@@H]6CO)O[C@@H]5CO)O[C@@H]4CO)O[C@@H]3CO` [C-b, beta cyclodextrin]: the Decomposing temperature in data set [4] came to 280 °C.
